Structures are written as SMILES. Read-outs that look alike come from different tables or passages of the source.

One series in a line: Cell cytotoxicity CC50. Type of series: cell-based. As to conditions: human; mean of at least two experiments.
Series [1] in a line: Liver hepatocyte stability, rat. Type of series: in vitro ADME. Conditions: rat hepatocytes, 3 μM compound, 60 min, >80% remaining at 60 min denoted >186, read-out: Liver Hepatocyte Stability: t1/2 (min). The procedure:
(§1) Cryopreserved pooled hepatocytes were purchased from a reputable commercial supplier and stored in liquid nitrogen prior to use. Williams E media supplemented with 2 mM L-glutamine and 25 mM HEPES and test compound (final substrate concentration 3 μM; final DMSO concentration 0.25%) are pre-incubated at 37° C. prior to the addition of a suspension of cryopreserved hepatocytes (final cell density 0.5×10^6 viable cells/mL in Williams E media supplemented with 2 mM L-glutamine and 25 mM HEPES) to initiate the reaction. The final incubation volume is 500 μL. Two control compounds were included with each species, alongside appropriate vehicle control. The reactions are stopped by transferring 50 μL of incubate to 100 μL acetonitrile containing internal standard at the appropriate time points. Samples were removed at 6 time points (0, 5, 15, 30, 45 and 60 min) over the course of a 60 min experiment. The termination plates are centrifuged at 2500 rpm at 4° C. for 30 min to precipitate the protein. Following protein precipitation, the sample supernatants were combined in cassettes of up to 4 compounds and analysed using generic LC-MS/MS conditions. From a plot of ln peak area ratio (compound peak area/internal standard peak area) against time, the gradient of the line is determined. Subsequently, half-life (t1/2) and intrinsic clearance (CLint) were calculated.

A short description of series [2]: Liver microsomal stability, rat. It counts as in vitro ADME. Conditions: pH 7.4; rat liver microsomes, 0.5 mg/mL protein, 1 μM compound, NADPH; >80% remaining at 45 min denoted >140; read-out: Liver Microsomal Stability: t1/2 (min); rat. In short, it runs like this: (§2)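 Pooled liver microsomes (0.5 mg/mL protein) in 0.1 M phosphate pH 7.4 with 1 μM compound (0.25% DMSO), started with 1 mM NADPH at 37° C; sampled 0-45 min, minus-NADPH control 45 min. LC-MS/MS depletion slope gave t1/2 and CLint.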

Series [3] is described as follows: Liver hepatocyte stability, dog. Type of series: in vitro ADME. Conditions: dog hepatocytes, 3 μM compound, 60 min, >80% remaining at 60 min denoted >186, read-out: Liver Hepatocyte Stability: t1/2 (min). The procedure: as §1
Series [4] is described as follows: Liver hepatocyte stability, human. Type of series: in vitro ADME. Conditions: human hepatocytes, 3 μM compound, 60 min, >80% remaining at 60 min denoted >186, read-out: Liver Hepatocyte Stability: t1/2 (min). Here is the method:
as §1

Series [5] is described as follows: Liver microsomal stability, human. Type of series: in vitro ADME. Conditions: pH 7.4; human liver microsomes, 0.5 mg/mL protein, 1 μM compound, NADPH; >80% remaining at 45 min denoted >140; read-out: Liver Microsomal Stability: t1/2 (min); human. In outline: as §2
A general note: Liver microsomes are vesicles of endoplasmic reticulum, rich in cytochrome P450 enzymes.

Series [6] can be described thus: Liver microsomal stability, dog. It counts as in vitro ADME. As to conditions: pH 7.4; dog liver microsomes, 0.5 mg/mL protein, 1 μM compound, NADPH; >80% remaining at 45 min denoted >140; read-out: Liver Microsomal Stability: t1/2 (min); dog. In short, it runs like this:
as §2

A short description of series [7]: Dog pharmacokinetics in vivo. Conditions: plasma, male Beagle dogs; for concentration at 8 h: read-out: C 8 h; for AUC(0-t): read-out: PO AUClast. Here is the method:
The pharmacokinetics of compounds of the invention were studied in vivo in dogs.
Male Beagle dogs were treated with experimental compounds via intravenous administration (n=2; 0.5 mg/kg) or oral administration (n=2; 3 mg/kg or 4 mg/kg). Compounds were formulated as a solution in 20% dimethylacetamide/80% (2-hydroxypropyl)-β-cyclodextrin (20% w/v) (IV administration) or a solution in 10% dimethylacetamide/90% (2-hydroxypropyl)-β-cyclodextrin (20% w/v) (PO administration). […] Serial blood samples were collected from the jugular vein at 0.03, 0.08, 0.25, 0.5, 1, 2, 4, 6, 8 and 24 h post IV dosing of compound, and at 0.08, 0.25, 0.5, 1, 2, 4, 6, 8 and 24 h post oral dosing of compound, and plasma was prepared by centrifugation and stored immediately at −80° C. Samples were subsequently thawed, prepared for analysis by protein precipitation with acetonitrile, and analysed by tandem LCMS using electrospray ionisation using a matrix-matched calibration curve. PK parameters were calculated from the resulting data.

Where [8] appears, read: IV 0.5 mg/kg, read-out: IV t1/2 (converted).
[9] abbreviates: PO 4 mg/kg, read-out: PO t1/2 (converted).

Broadly, the CC50 is the concentration at which the toxic effect on the cells reaches its halfway point. A low value points to greater toxicity to the cells. As to `CCn1ncc(C(=O)N[C@H]2N=C(c3ccccc3)c3ccccc3NC2=O)c1-c1ccc(NC(C)C)nc1F` [Example 3, 1-Ethyl-5-[2-fluoro-6-(propan-2-ylamino)pyridin-3-yl]-N-[(3S)-2-oxo-5-phenyl-1,3-dihydro-1,4-benzodiazepin-3-yl]pyrazole-4-carboxamide], in “Cell cytotoxicity CC50”, the CC50 at 2 days is > 25 µM. Moreover, the results for the half-life at 3 µM in series [1], in series [3] and in series [4] were 73.8 min, 67.4 min and 52.6 min, respectively. Moreover, the half-life at 1 µM in series [2] came out at 88.8 min; in series [5] it was 287 min; in series [6] it was 45.3 min.
What is called Cmax is the peak of the concentration-time curve. For orientation: bioavailability means the share of a dose that reaches the circulation, judged against a reference dose that is usually intravenous. What is called Vd is a proportionality between amount in the body and measured concentration, not a real space. Low values mean little distribution into tissue, high ones wide distribution into tissue. What is called clearance is the rate of elimination divided by the concentration. A higher clearance goes with a high capacity for elimination. With `CCn1ncc(C(=O)N[C@H]2N=C(c3ccccc3)c3ccccc3NC2=O)c1-c1ccc(NC2CC2)nc1F` [Example 4, 1-Ethyl-5-[2-fluoro-6-(cyclopropylamino)pyridin-3-yl]-N-[(3S)-2-oxo-5-phenyl-1,3-dihydro-1,4-benzodiazepin-3-yl]pyrazole-4-carboxamide], the CC50 in the series “Cell cytotoxicity CC50” was > 25 µM. Moreover, the half-life in series [1] was 47.3 min; in series [2], 68.5 min; in series [7] (setting [8]), 1 h; in series [7] (setting [9]), 2.3 h; in series [3] it was 42.1 min; in series [4], 53.5 min. In addition, the half-life in series [5] turned out to be 52 min; in series [6], 14.4 min. The concentration at 8 h in series [7] (Dose: IV/PO 0.5/4 mg/kg) amounted to 56.1 ng/mL. The highest concentration (Cmax) in series [7] (Dose: IV/PO 0.5/4 mg/kg) turned out to be 780 ng/mL. The same compound displayed a bioavailability in series [7] (Dose: IV/PO 0.5/4 mg/kg) of 41.5%. Besides, in series [7] (IV 0.5 mg/kg), the Vd was 0.79 L/kg. Also, in series [7] (IV 0.5 mg/kg), the clearance is 10.3 mL/min/kg. In series [7] (PO 4 mg/kg), the AUC(0-t) was 2680 ng·h/mL.
On to `O=C(N[C@H]1N=C(c2ccccc2)c2cccc(F)c2NC1=O)c1cnn(C2CCOCC2)c1-c1ccc(NC2CC2)nc1F` [Example 21, 5-[6-(Cyclopropylamino)-2-fluoropyridin-3-yl]-N-[(3S)-9-fluoro-2-oxo-5-phenyl-1,3-dihydro-1,4-benzodiazepin-3-yl]-1-(oxan-4-yl)pyrazole-4-carboxamide], for which, in the series “Cell cytotoxicity CC50”, the CC50 is > 25 µM. The half-life in series [1] was 284 min; in series [2], 87.6 min; in series [7] (setting [8]), 7.6 h; in series [7] (PO 3 mg/kg, read-out: PO t1/2 (converted)), 5.6 h; in series [3], > 186 min; in series [4], > 186 min. Besides, the half-life in series [5] worked out at 170 min; in series [6], 124 min. For the same compound, in series [7] (Dose: IV/PO 0.5/3 mg/kg), the concentration at 8 h amounted to 146 ng/mL. Besides, in series [7] (Dose: IV/PO 0.5/3 mg/kg), the highest level (Cmax) was 500 ng/mL. The compound also displayed a bioavailability in series [7] (Dose: IV/PO 0.5/3 mg/kg) of 33.6%. Moreover, the Vd in series [7] (IV 0.5 mg/kg) came out at 1.3 L/kg. The compound further came in with a clearance in series [7] (IV 0.5 mg/kg) of 4.2 mL/min/kg. Besides, the AUC(0-t) in series [7] (PO 3 mg/kg) came to 3610 ng·h/mL.
On to `CC(C)Nc1ccc(-c2c(C(=O)N[C@H]3N=C(c4ccccc4)c4cccc(F)c4NC3=O)cnn2C2CCOCC2)c(F)n1` [Example 22, N-[(3S)-9-fluoro-2-oxo-5-phenyl-1,3-dihydro-1,4-benzodiazepin-3-yl]-5-[2-fluoro-6-(propan-2-ylamino)pyridin-3-yl]-1-(oxan-4-yl)pyrazole-4-carboxamide], for which, in “Cell cytotoxicity CC50”, the CC50 was > 25 µM. Moreover, the half-life in series [1] was 120 min; in series [2], > 140 min; in series [7] (setting [8]) it was 4.9 h; in series [7] (setting [9]) it was 6.8 h; in series [3] it was 90.7 min; in series [4], 207 min. The half-life in series [5] came out at 287 min; in series [6], 88.6 min. Besides, the concentration at 8 h in series [7] (Dose: IV/PO 0.5/4 mg/kg) was determined as 281 ng/mL. Also, the Cmax in series [7] (Dose: IV/PO 0.5/4 mg/kg) worked out at 692 ng/mL. In series [7] (Dose: IV/PO 0.5/4 mg/kg), the bioavailability came to 40.1%. The same compound yielded a Vd in series [7] (IV 0.5 mg/kg) of 1.4 L/kg. Moreover, the clearance in series [7] (IV 0.5 mg/kg) is 4.1 mL/min/kg. Further, the AUC(0-t) in series [7] (PO 4 mg/kg) was determined as 6050 ng·h/mL.
`CCNc1ccc(-c2c(C(=O)N[C@H]3N=C(c4ccccc4)c4cccc(F)c4NC3=O)cnn2C2CCOCC2)c(F)n1` [Example 24, 5-[6-(Ethylamino)-2-fluoropyridin-3-yl]-N-[(3S)-9-fluoro-2-oxo-5-phenyl-1,3-dihydro-1,4-benzodiazepin-3-yl]-1-(oxan-4-yl)pyrazole-4-carboxamide]: the CC50 in the series “Cell cytotoxicity CC50” was > 25 µM. The half-life is 228 min in series [1]; 484 min in series [2]; 1.5 h in series [7] (setting [8]); 2.4 h in series [7] (setting [9]); 139 min in series [3]; 162 min in series [4]. For the same compound, the half-life is > 140 min in series [5] and 198 min in series [6]. In addition, the concentration at 8 h in series [7] (Dose: IV/PO 0.5/4 mg/kg) came to 67 ng/mL. In series [7] (Dose: IV/PO 0.5/4 mg/kg), the maximum concentration (Cmax) came out at 450 ng/mL. The compound also registered a bioavailability in series [7] (Dose: IV/PO 0.5/4 mg/kg) of 22.7%. The compound further returned a Vd in series [7] (IV 0.5 mg/kg) of 0.86 L/kg. For the same compound, the clearance in series [7] (IV 0.5 mg/kg) is 6.5 mL/min/kg. The AUC(0-t) in series [7] (PO 4 mg/kg) was 2300 ng·h/mL.

For the origin of these results see patent publication US20220409629A1, “BENZODIAZEPINE DERIVATIVES FOR TREATING A RESPIRATORY SYNCYTIAL VIRUS (RSV) INFECTION” (priority 2019, published 2022).
